Data: article PMC13429874, “ABHD2 activity is not required for the non-genomic action of progesterone on human sperm” (Human Reproduction (Oxford, England), 2026)
Entries after “also recorded” stand apart in the source; their conditions may differ. Read-outs that look alike come from different tables or passages of the source.

Legend:
ABHD2^L33–E425 [1] = molecular target: T1, ABHD2^L33–E425 (Homo sapiens, UniProt P08910); assay: Differential scanning fluorimetry (DSF) with purified ABHD2^L33–E425; assay type: binding; settings: for effect on heat-induced denaturation of ABHD2^L33–E425 (DSF binding): 40 µM steroid; for ΔTm shift for ABHD2^L33-425 determined by DSF: purified protein
T1 construct: expression for ABHD2 amino acids L33–E425, in which a predicted transmembrane domain (amino acids 1–32) is removed; His6-FLAG (N); made in house; host or cells: E. coli BL21(DE3)-R3-pRARE2
T1 sequence (P08910 33-425): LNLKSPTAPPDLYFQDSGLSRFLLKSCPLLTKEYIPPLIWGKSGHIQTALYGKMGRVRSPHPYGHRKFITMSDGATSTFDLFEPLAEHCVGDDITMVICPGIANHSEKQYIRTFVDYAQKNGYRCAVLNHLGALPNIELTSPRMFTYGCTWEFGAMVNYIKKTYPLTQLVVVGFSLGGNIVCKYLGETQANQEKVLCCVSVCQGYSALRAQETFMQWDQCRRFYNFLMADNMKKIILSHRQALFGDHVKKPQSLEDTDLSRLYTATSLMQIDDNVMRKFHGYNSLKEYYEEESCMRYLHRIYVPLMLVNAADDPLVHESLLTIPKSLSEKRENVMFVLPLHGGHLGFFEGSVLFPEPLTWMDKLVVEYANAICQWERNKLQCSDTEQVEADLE

ABHD2^L33–E425 [2] = molecular target: T1, ABHD2^L33–E425; assay: ABHD2^L33-E425 fluorometric enzymatic activity assay with 7-HCA substrate; assay type: biochemical; settings: for IC50: 10 nM enzyme, 10 µM 7-HCA, read-out: IC50 for ABHD2^L33-425, fluorometric assay using 7-HCA
[3] = molecular target: T2, full-length human ABHD2 (ABHD2^FL) (Homo sapiens, UniProt P08910); assay: ABHD2^FL enzymatic activity assay with 7-HCA substrate; assay type: biochemical; settings: for IC50: Supplementary Table S2, read-out: IC50 measured in ABHD2^FL in the 7-HCA Assay
T2 construct: TEV site-eGFP-8xHis (C, cleaved yes); made in house; host or cells: SF9 insect cells (baculovirus)
T2 sequence (P08910 1-425): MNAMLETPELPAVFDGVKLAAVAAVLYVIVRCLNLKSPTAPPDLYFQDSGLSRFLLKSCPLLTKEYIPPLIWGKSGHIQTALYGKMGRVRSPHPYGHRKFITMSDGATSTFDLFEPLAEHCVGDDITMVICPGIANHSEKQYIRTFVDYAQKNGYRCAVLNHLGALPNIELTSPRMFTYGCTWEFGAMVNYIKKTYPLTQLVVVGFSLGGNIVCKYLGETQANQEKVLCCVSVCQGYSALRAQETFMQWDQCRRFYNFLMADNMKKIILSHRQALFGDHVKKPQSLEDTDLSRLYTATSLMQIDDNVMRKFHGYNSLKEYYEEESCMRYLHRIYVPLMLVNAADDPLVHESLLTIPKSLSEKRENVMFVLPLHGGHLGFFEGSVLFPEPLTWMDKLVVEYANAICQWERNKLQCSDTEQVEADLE

human sperm [4] = assay: Sperm hyperactivation assay (CASA); assay type: cell-based; settings: 10 µM compound, 30 min; for effect on progesterone-induced hyperactivation: 3 µM progesterone
Protocol: Sperm hyperactivation was assessed in human sperm purified by density gradient centrifugation. Semen samples (n = 7) were allowed to liquefy for 15–30 min at 37°C, and up to 2 ml of liquified semen was layered onto a two-step GM501 gradient system (45%/90%; Gynemed; Sierksdorf, Germany) pre-equilibrated at 37°C. Gradients were centrifuged for 20 min at 400 × g (no break). The 90% pellet was collected, washed in SpermActive medium (Gynemed; composition per manufacturer: NaCl, KCl, MgSO4.7H2O, KH2PO4, 1.77 mM CaCl2.2H2O, D(+)-glucose anhydrous, sodium pyruvate, sodium lactate, EDTA, alanyl-glutamine, essential and non-essential amino acids, 25.71 mM NaHCO3, 15 mM HEPES, 5 g/l human serum albumin, 10 mg/l gentamicin, and phenol red), and incubated for at least 2 h at 37°C, 5% CO2.
For compound testing, sperm suspensions with 7.5 × 10^6 sperm/ml in SpermActive were treated with either DMSO (vehicle) or 10 µM test compound. For basal and induced hyperactivation conditions, DMSO or progesterone (3 µM), respectively, was added. Samples were incubated for 30 min at 37°C, 5% CO2, before motility analysis.
Motility was analyzed using a CASA system (CEROSII^TM Animal Motility, software version 1.16; Hamilton Thorne, Beverly, MA, USA), mounted on an Axiolab 5 microscope (Zeiss, Germany), equipped with a TPi-SX Thermal Plate (Tokai Hit; Shizuoka-ken, Japan) and a JAI CM-040-GE CCD camera (JAI; Tokyo, Japan). Leja slides (20 µm chamber depth; Leja Products B.V., Nieuw-Vennep, The Netherlands) were pre-warmed to 37°C, cleaned with lens paper, and loaded by capillary action with 6 µl sperm suspension; capillary correction was set to 1.3. Sperm tracks were recorded at 37°C using a 10× negative-phase objective, acquiring 60 frames at 60 Hz with 4 ms exposure and gain set to 600. For each sample and condition, 300–500 motile sperm from at least 10 non-overlapping fields were analyzed. Hyperactive sperm were identified using the SORT function with the following Boolean argument: VCL > 150 µm/s and LIN < 50% and ALH > 7 µm. For each sample and condition, the percentage of hyperactive sperm was normalized to the percentage of motile sperm, and the mean of two technical duplicates was reported.
Statistical analysis was performed using GraphPad Prism 10 for Windows (version 10.6.1). Data normality was assessed using Shapiro–Wilk test. Differences between basal and induced hyperactivation were evaluated using a paired t-test, with effective pairing confirmed across all comparisons. P < 0.05 was considered statistically significant.

human sperm [5] = assay: Sperm intracellular Ca2+ measurements (Fluo-4); assay type: cell-based; settings: for compound-evoked changes in [Ca2+]i: 10 µM compound; for effect on progesterone-induced Ca2+ signal (amplitude and waveform): compounds 10 µM, TS150 60 µM, progesterone 3 µM
Protocol: Measurements of the changes in sperm intracellular Ca^2+ concentration ([Ca^2+]i) were performed on motile human sperm purified by swim-up. Semen samples were allowed to liquefy for 15–60 min at 37°C, and 0.5–1 ml liquified semen was layered beneath 4 ml human tubal fluid medium (HTF; 97.8 mM NaCl, 4.69 mM KCl, 0.2 mM MgSO4, 0.37 mM KH2PO4, 2.04 mM CaCl2, 2.78 mM glucose, 0.33 mM sodium pyruvate, 21.4 mM lactic acid, 4 mM NaHCO3, and 21 mM HEPES pH 7.35 adjusted with NaOH) in 50 ml conical tubes. Motile sperm were allowed to swim up into the HTF for 60–90 min at 37°C, collected, washed twice (700 × g, 20 min, 37°C), and resuspended in HTF containing 3 mg/ml HSA at a density of 1 × 10^7 sperm/ml. Changes of [Ca^2+]i in motile human sperm were measured as previously described ([Rennhack et al., 2018]), using a fluorescence plate-reader assay (FLUOstar Omega, BMG LABTECH) with 384-well plates. Swim-up-purified sperm were loaded with Fluo4-AM (5 μM, Thermo Fisher Scientific, Waltham, MA, USA) and Pluronic F-127 (0.05% w/v) for 20 min at 37°C. Excess dye was removed by centrifugation at 700 × g for 5 min, supernatant removal, and resuspension to 5 × 10^6 sperm/ml in HTF.
For recordings, wells of a 384-well plate were filled with 50 μl of the dye-loaded sperm suspension. Fluorescence was excited at 480 nm, and emission was recorded at 520 nm using a plate reader (Fluostar Omega, BMG Labtech). After establishing a baseline for at least 60 s, 25 µl test compound solutions were added and the fluorescence response recorded. After 4 min, 7.5 µl progesterone was added to reach a final concentration of 3 µM, and ensuing changes in fluorescence were recorded. For the analysis of compound-evoked Ca^2+ signal, basal fluorescence (F0) was determined prior to compound addition. For the determination of inhibitory effects of compounds on progesterone-evoked Ca^2+ signals, basal fluorescence (F0) was determined before progesterone addition. The CatSper inhibitor TS150 ([Schierling et al., 2023]) was used as a control. Each compound was tested in technical duplicates across ≥3 biological replicates, using sperm from at least two donors, and performed on at least two separate days.
Data analysis and graphical representation were performed with GraphPad Prism software version 10.6.1 (San Diego, CA, USA). Changes in Fluo-4 fluorescence are depicted as ΔF/F0 (%), i.e. the change in fluorescence (ΔF) relative to the mean basal fluorescence (F0) before application of buffer or compounds/ligands, to correct for intra- and inter-experimental variations in basal fluorescence among individual wells or to correct for compound-evoked changes in fluorescence. Signal amplitudes evoked in the presence of compounds were normalized to the maximal signal amplitude evoked by 3 µM progesterone in the absence of the compound (set to 1) to ease comparisons between experiments.

[6] = 5 µM steroid or triterpenoid, 300 nM 7-HCA
[7] = 7-HCA and RB substrates (Suppl. Fig. S4A,B), weak effects at ≥5 µM

17α-hydroxyprogesterone [reference compound]
effect on heat-induced denaturation of ABHD2^L33–E425 (DSF binding) (ABHD2^L33–E425 [1]; 30 min pre-incubation): no binding was observed

C[C@]12CC[C@@H]3c4ccc(O)cc4CC[C@H]3[C@@H]1CC[C@@H]2O [17β-estradiol]
effect on enzymatic activity of purified ABHD2^L33–E425 (ABHD2^L33–E425 [2]; [6]): did not alter | effect on enzymatic activity of purified ABHD2^FL [3, 7]: did not alter

O=C(N1CCCCC1)N1CCCC[C@@H]1Cc1ccccc1 [(R)-1]
effect on progesterone-induced hyperactivation (human sperm [4]): not affected | effect on basal hyperactivation (human sperm [4]): No statistically significant differences; also recorded: did not affect | IC50 (ABHD2^L33–E425 [2]): 1200 nM | compound-evoked changes in [Ca2+]i (human sperm [5]): only minuscule changes | effect on progesterone-induced Ca2+ signal (amplitude and waveform) (human sperm [5]): similar | ΔTm shift for ABHD2^L33-425 determined by DSF (ABHD2^L33–E425 [1]): 3.0 °C

O=C(N1CCCCC1)N1CCCC[C@@H]1c1ccccc1 [(R)-2]
effect on progesterone-induced hyperactivation (human sperm [4]): not affected | effect on basal hyperactivation (human sperm [4]): No statistically significant differences; also recorded: did not affect | IC50 (ABHD2^L33–E425 [2]): 220 nM | compound-evoked changes in [Ca2+]i (human sperm [5]): only minuscule changes | effect on progesterone-induced Ca2+ signal (amplitude and waveform) (human sperm [5]): similar | ΔTm shift for ABHD2^L33-425 determined by DSF (ABHD2^L33–E425 [1]): 8.4 °C | IC50 [3]: 240 nM

O=C(N1CCCCC1)N1CCCC[C@H]1Cc1ccccc1 [(S)-1]
IC50 (ABHD2^L33–E425 [2]): 3000 nM | ΔTm shift for ABHD2^L33-425 determined by DSF (ABHD2^L33–E425 [1]): 2.5 °C

O=C(N1CCCCC1)N1CCCC[C@H]1c1ccccc1 [(S)-2]
IC50 (ABHD2^L33–E425 [2]): 2100 nM | ΔTm shift for ABHD2^L33-425 determined by DSF (ABHD2^L33–E425 [1]): 2.7 °C | IC50 [3]: 5900 nM

Cc1ccc(C2CCCCN2C(=O)N2CCCCC2)cc1 (stereo not shown) [Compound 5]
IC50 (ABHD2^L33–E425 [2]): 940 nM | effect on melting temperature / thermal stability of ABHD2^L33-E425 (DSF), in words (ABHD2^L33–E425 [1]; 10 µM compound, 30 min pre-incubation): increased melting temperature | ΔTm shift for ABHD2^L33-425 determined by DSF (ABHD2^L33–E425 [1]): 3.3 °C | IC50 [3]: 4200 nM

CCCCC/C=C\C/C=C\C/C=C\C/C=C\CCCC(=O)Oc1ccc2ccc(=O)oc2c1 [Compound 7-HCA, 7-hydroxycoumarinyl arachidonate]
kcat of substrate hydrolysis by ABHD2^L33–E425 (ABHD2^L33–E425 [2]): 2.8 pmol substrate/min/pmol enzyme | Km (ABHD2^L33–E425 [2]; read-out: Km of substrate hydrolysis by ABHD2^L33–E425): 0.28 µM | Km ([3]; read-out: Km of substrate hydrolysis by ABHD2^FL): 59 µM

CC(C)CCC[C@@H](C)[C@H]1CC[C@H]2[C@@H]3CC=C4C[C@@H](O)CC[C@]4(C)[C@H]3CC[C@]12C [cholesterol]
effect on enzymatic activity of purified ABHD2^L33–E425 (ABHD2^L33–E425 [2]; [6]): did not alter | effect on heat-induced denaturation of ABHD2^L33–E425 (DSF binding) (ABHD2^L33–E425 [1]; 30 min pre-incubation): did not affect | effect on enzymatic activity of purified ABHD2^FL [3, 7]: did not alter

C[C@]12CCC(=O)C=C1CC[C@@H]1[C@@H]2[C@@H](O)C[C@@]2(C)[C@H]1CC[C@]2(O)C(=O)CO [hydrocortisone]
effect on enzymatic activity of purified ABHD2^L33–E425 (ABHD2^L33–E425 [2]; [6]): did not alter | effect on heat-induced denaturation of ABHD2^L33–E425 (DSF binding) (ABHD2^L33–E425 [1]; 30 min pre-incubation): did not affect | effect on enzymatic activity of purified ABHD2^FL [3, 7]: did not alter

C[C@]12CC[C@H]3[C@@H](CCC4=CC(=O)CC[C@@]43C)[C@@H]1CC[C@@H]2O [testosterone]
effect on enzymatic activity of purified ABHD2^L33–E425 (ABHD2^L33–E425 [2]): did not alter | effect on heat-induced denaturation of ABHD2^L33–E425 (DSF binding) (ABHD2^L33–E425 [1]; 30 min pre-incubation): did not affect | effect on enzymatic activity of purified ABHD2^FL [3]: did not alter

pregnenolone sulfate
effect on enzymatic activity of purified ABHD2^L33–E425 (ABHD2^L33–E425 [2]): but not on ABHD2^L33–E425 | effect on heat-induced denaturation of ABHD2^L33–E425 (DSF binding) (ABHD2^L33–E425 [1]; 30 min pre-incubation): did not affect | effect on enzymatic activity of purified ABHD2^FL [3]: weak inhibitory action
